We go through eleven compounds from patent US7598418B2, “Amide derivatives” (Institute of Medicinal Molecular Design, Inc., priority 2002, dated 2009).

SMILES strings stand for the structures.

This assay concerns Jurkat cells. The assay is described as follows: Jurkat cell proliferation, MTS method: compound alone or combined with bleomycin. Format: cell-based. Also on record: key: ┌++┘ indicates observation of remarkable enhancement; ┌+┘ indicates moderated enhancement. The note with it: compound plus bleomycin 5 μg/ml or 10 μg/ml, 36 hours, survival rate vs DMSO control. As for the experimental part: By using aforementioned synthetic compounds, effects on proliferation of Jurkat cells by sole administration and inhibitory effects on cell proliferation by administration in combination with bleomycin were examined. Materials and methods are as follows. Jurkat cells obtained from Dainippon Pharmaceutical Co. Ltd. were inoculated at about 10,000 cells per well in a 96 well culture plate, and incubated in 10% bovine fetal serum (Irvine Scientific) supplemented with RPMI1640 (ICN) medium in 5% CO2 incubator at 37° C. […] 36 hours after the incubation, the number of living cells was counted by the MTS method.
More specifically, 20 μl of CellTiter96™ AQueous One Solution (Promega) was added per one well, and after the cells were incubated for additional one hour, an absorbance at 490 nm was measured by using a microplate reader. The same culture added with DMSO as a solvent at final concentration of 0.25% was used as a control. The number of cells in the control was considered as 100% survival rate, and for each compound, survival rates by sole administration or a combined administration were calculated. […] In the table, ┌++┘ indicates observation of remarkable enhancement, ┌+┘ indicates moderated enhancement.
In general terms: Tetrazolium assays rely on reduction of a dye to a coloured formazan, in cell work by metabolically active cells.

Regarding `COc1ccccc1CNS(=O)(=O)c1cccc2c(OS(=O)(=O)c3ccc(C)cc3)cccc12` [Compound 1-11, N-(2-Methoxybenzyl)-5-{[(4-methylphenyl)sulfonyl]oxy}naphthalene-1-sulfonamide], the “Activity (enhancement of inhibitory effect on cell proliferation in combination with bleomycin)” value is on record as “++”.
With `Cc1ccc(S(=O)(=O)Oc2cccc3c(S(=O)(=O)NCc4ccccc4)cccc23)cc1` [Compound 1-1, N-Benzyl-5-{[(4-methylphenyl)sulfonyl]oxy}naphthalene-1-sulfonamide] the entry was “++”.
Take `Cc1ccc(S(=O)(=O)Oc2cccc3c(S(=O)(=O)N(C)Cc4ccccc4)cccc23)cc1` [Compound 1-27, N-Benzyl-N-methyl-5-{[(4-methylphenyl)sulfonyl]oxy}naphthalene-1-sulfonamide]: the “Activity (enhancement of inhibitory effect on cell proliferation in combination with bleomycin)” value is on record as “+”.
For `O=S(=O)(NCC1CCCCC1)c1cccc2c(O)cccc12` [Compound 2-23, N-Cyclohexylmethyl-5-hydroxynaphthalene-1-sulfonamide], the “Activity (enhancement of inhibitory effect on cell proliferation in combination with bleomycin)” value is “+”.
With `O=S(=O)(NCc1cccc2ccccc12)c1ccc2c(O)cccc2c1` [Compound 4-8, N-(1-Naphthylmethyl)-5-hydroxynaphthalene-2-sulfonamide] the entry was “+”; with `Nc1cccc(CNS(=O)(=O)c2ccc3c(O)cccc3c2)c1` [Compound 4-7, N-(3-Aminobenzyl)-5-hydroxynaphthalene-2-sulfonamide], “+”.
Take `CC(C)(C)c1ccc(CNS(=O)(=O)c2ccc3c(N)cccc3c2)cc1` [Compound 6-2, 5-Amino-N-[4-(tert-butyl)benzyl]naphthalene-2-sulfonamide]: the “Activity (enhancement of inhibitory effect on cell proliferation in combination with bleomycin)” value is recorded as “+”.
With `Cc1ccc(S(=O)(=O)Oc2cccc3c(S(=O)(=O)NCc4cccc5ccccc45)cccc23)cc1` [Compound 1-19, N-(1-Naphthylmethyl)-5-{[(4-methylphenyl)sulfonyl]oxy}naphthalene-1-sulfonamide], the “Activity (enhancement of inhibitory effect on cell proliferation in combination with bleomycin)” value is given as “++”.
Next, `Cc1ccc(S(=O)(=O)Oc2cccc3c(S(=O)(=O)NCc4ccc(C(F)(F)F)cc4)cccc23)cc1` [Compound 1-9, N-[4-(Trifluoromethyl)benzyl]-5-{[(4-methylphenyl)sulfonyl]oxy}naphthalene-1-sulfonamide]: “++”; `Cc1ccc(S(=O)(=O)Oc2cccc3c(S(=O)(=O)NCc4cccc(N)c4)cccc23)cc1` [Compound 1-16, N-(3-Aminobenzyl)-5-{[(4-methylphenyl)sulfonyl]oxy}naphthalene-1-sulfonamide]: “+”; `COc1cccc(CNS(=O)(=O)c2cccc3c(O)cccc23)c1OC` [Compound 2-13, N-(2,3-Dimethoxylbenzyl)-5-hydroxynaphthalene-1-sulfonamide]: “+”.
